{"source": "ChEMBL document CHEMBL1158820", "about": "“Avrainvilloside, a 6-deoxy-6-aminoglucoglycerolipid from the green alga Avrainvillea nigricans” (J Nat Prod, 2005)", "test_system": "WEHI-164", "assay": "Cytotoxicity against mouse WEHI164 cells", "format": "functional, cell-based", "data": [{"smiles": "CCCCCCCCCCCCCCCCCC(=O)OC[C@H](CO[C@H]1O[C@H](CN)[C@@H](O)[C@H](O)[C@H]1O)OC(=O)CCCCCCCCCCCCCCCCC", "note": "[AVRAINVILLOSIDE]", "values": [{"measurement": "IC50", "value": "> 10", "unit": "µg/mL"}]}]}
